{
  "source": "patent US6872574B2",
  "about": "“Proteomic analysis” (The Scripps Research Institute, priority 2000, dated 2005)",
  "key": {"cALDH-I [1]": {"molecular_target": "T1, cALDH-I (Rattus norvegicus, UniProt P51647)", "T1 construct": "made in house; host or cells: E. coli BL-21", "T1 sequence (P51647 1-501)": "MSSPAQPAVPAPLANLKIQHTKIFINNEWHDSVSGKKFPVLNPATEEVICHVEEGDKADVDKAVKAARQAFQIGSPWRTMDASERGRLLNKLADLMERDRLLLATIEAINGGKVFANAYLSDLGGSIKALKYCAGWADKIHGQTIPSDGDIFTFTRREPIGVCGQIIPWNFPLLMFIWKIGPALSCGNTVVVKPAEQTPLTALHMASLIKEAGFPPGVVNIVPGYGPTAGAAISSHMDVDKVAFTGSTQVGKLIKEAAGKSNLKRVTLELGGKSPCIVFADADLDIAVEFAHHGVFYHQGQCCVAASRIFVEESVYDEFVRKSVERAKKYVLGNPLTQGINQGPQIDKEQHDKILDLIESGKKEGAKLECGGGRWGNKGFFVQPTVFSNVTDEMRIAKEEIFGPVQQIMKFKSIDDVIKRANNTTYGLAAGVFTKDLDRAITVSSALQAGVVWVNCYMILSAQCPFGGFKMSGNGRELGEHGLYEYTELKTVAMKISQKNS", "format": "binding"}, "rat testis proteome": {"tested_on": "rat testis proteome", "format": "binding"}, "cALDH-I [2]": {"molecular_target": "T1, cALDH-I", "assay": "cALDH-I enzyme assay and inhibition studies", "format": "biochemical", "method": "(§1) cALDH-I activity was determined at 25° C. in Tris buffer (20 mM Tris-HCl, pH 8, 100 mM NaCl). Purified cALDH-I (0.2 μM) was preincubated with 15 (2.5 μM-15 μM) in DMSO (30 μL, 3% total incubation vol) in a volume of 950 μL for 5 to 45 min. After preincubation of the enzyme with inhibitor, remaining catalytic activity was measured by adding NAD^+ (500 μM final concentration) and propionaldehyde (1 mM final concentration) in 50 μL of buffer. Production of NADH from the oxidation of propionaldehyde was monitored by measuring the change in absorbance at 340 nm for 2 min. In substrate competition assays, purified cALDH-I (0.2 μM) was preincubated with either NAD^+ (50 μM) or propionaldehyde (25 μM) and 10 μM of 15 for 10 minutes at 25° C. in a volume of 950 μL. Remaining catalytic activity was monitored as described above."}, "[3]": {"conditions": "pH 8"}, "[4]": {"substrate": "CCC=O", "assay": "cALDH-I enzyme assay and inhibition studies", "format": "biochemical, rat", "conditions": "other: His-tagged recombinant cALDH-I; pH 8.0; 25.0 °C", "method": "as §1"}, "serine hydrolases": {"tested_on": "serine hydrolases", "format": "binding, rat"}, "trypsin": {"tested_on": "trypsin", "format": "binding"}},
  "data": [
    {"molecule": "O=C(CCCCCCCCCOS(=O)(=O)c1ccccn1)NCCCCCNC(=O)CCCC[C@@H]1SC[C@@H]2NC(=O)N[C@@H]21", "note": "[Sulfonate 1, 10-((2-Pyridylsulfonyl)oxo)-N-biotinamidopentyldecanamide]", "values": [
      {"measurement": "labeling of 55-kDa protein in cALDH-I-transfected cells", "setting": "cALDH-I [1]", "result": "labeled strongly"}
    ]},
    {"molecule": "COc1ccc(S(=O)(=O)OCCCCCCCCCC(=O)NCCCCCNC(=O)CCCCC2SCC3NC(=O)NC32)cc1", "note": "(stereo not drawn) [Sulfonate 4, 10-((4-Methoxybenzenesulfonyl)oxo)-N-biotinamidopentyldecanamide]", "values": [
      {"measurement": "nonspecific (heat-insensitive) proteome reactivity", "setting": "rat testis proteome", "result": "significant additional reactivity with the preheated proteome"}
    ]},
    {"molecule": "CS(=O)(=O)OCCCCCCCCCC(=O)NCCCCCNC(=O)CCCCC1SCC2NC(=O)NC21", "note": "(stereo not drawn) [Sulfonate 5, 10-((Methylsulfonyl)oxo)-N-biotinamidopentyldecanamide]", "values": [
      {"measurement": "nonspecific (heat-insensitive) proteome reactivity", "setting": "rat testis proteome", "result": "significant additional reactivity with the preheated proteome"}
    ]},
    {"molecule": "CCCCCCCCS(=O)(=O)OCCCCCCCCCC(=O)NCCCCCNC(=O)CCCC[C@@H]1SC[C@@H]2NC(=O)N[C@@H]21", "note": "[Sulfonate 7, 10-((Octylsulfonyl)oxo)-N-biotinamidopentyldecanamide]", "values": [
      {"measurement": "specific (heat-sensitive) proteome reactivity", "setting": "rat testis proteome", "result": "All sulfonates except the octylsulfonate 7 labeled at least one member of the testis proteome in a heat-sensitive manner"}
    ]},
    {"molecule": "O=C(CCCCCCCCCOS(=O)(=O)c1ccc([N+](=O)[O-])cc1)NCCCCCNC(=O)CCCCC1SCC2NC(=O)NC21", "note": "(stereo not drawn) [Sulfonate 8, 10-((4-Nitrobenzenesulfonyl)oxo)-N-biotinamidopentyldecanamide]", "values": [
      {"measurement": "specific (heat-sensitive) proteome reactivity", "setting": "rat testis proteome", "result": "reacted specifically with a 55 kDa protein, as well as two additional proteins"}
    ]},
    {"molecule": "O=C(CCCCCCCCCOS(=O)(=O)c1cccc2cccnc12)NCCCCCNC(=O)CCCCC1SCC2NC(=O)NC21", "note": "(stereo not drawn) [Sulfonate 9, 10-((8-Quinolinesulfonyl)oxo)-N-biotinamidopentyldecanamide]", "values": [
      {"measurement": "specific (heat-sensitive) proteome reactivity", "setting": "rat testis proteome", "result": "reacted specifically with a 55 kDa protein, as well as two additional proteins"}
    ]},
    {"molecule": "O=C(CCCCCCCCCOS(=O)(=O)c1cccs1)NCCCCCNC(=O)CCCCC1SCC2NC(=O)NC21", "note": "(stereo not drawn) [Sulfonate 11]", "values": [
      {"measurement": "specific (heat-sensitive) proteome reactivity", "setting": "rat testis proteome", "result": "reacted specifically with a 55 kDa protein, as well as two additional proteins"}
    ]},
    {"molecule": "CCCCCCCCOS(=O)(=O)c1ccccn1", "note": "[Sulfonate 15, 1-(2-Pyridylsulfonyl)oxo-octane]", "values": [
      {"measurement": "average Kobs/[I]", "setting": "cALDH-I [2]", "result": "(9.7+1.8)×10^3 M^−1min^−1"},
      {"measurement": "stability to assay conditions", "setting": "[3]", "result": "stable to the assay conditions employed"}
    ]},
    {"molecule": "cALDH-I (Rattus norvegicus) (protein, made in house; host or cells: E. coli BL-21) MSSPAQPAVPAPLANLKIQHTKIFINNEWHDSVSGKKFPVLNPATEEVICHVEEGDKADVDKAVKAARQAFQIGSPWRTMDASERGRLLNKLADLMERDRLLLATIEAINGGKVFANAYLSDLGGSIKALKYCAGWADKIHGQTIPSDGDIFTFTRREPIGVCGQIIPWNFPLLMFIWKIGPALSCGNTVVVKPAEQTPLTALHMASLIKEAGFPPGVVNIVPGYGPTAGAAISSHMDVDKVAFTGSTQVGKLIKEAAGKSNLKRVTLELGGKSPCIVFADADLDIAVEFAHHGVFYHQGQCCVAASRIFVEESVYDEFVRKSVERAKKYVLGNPLTQGINQGPQIDKEQHDKILDLIESGKKEGAKLECGGGRWGNKGFFVQPTVFSNVTDEMRIAKEEIFGPVQQIMKFKSIDDVIKRANNTTYGLAAGVFTKDLDRAITVSSALQAGVVWVNCYMILSAQCPFGGFKMSGNGRELGEHGLYEYTELKTVAMKISQKNS", "values": [
      {"measurement": "Km", "setting": "[4]", "result": 4.2, "unit": "µM"}
    ]},
    {"molecule": "STI: Kunitz-type serine protease inhibitor, soybean trypsin inhibitor (protein, UniProt P01070 25-205, looked up) Trypsin inhibitor A: DFVLDNEGNPLENGGTYYILSDITAFGGIRAAPTGNERCPLTVVQSRNELDKGIGTIISSPYRIRFIAEGHPLSLKFDSFAVIMLCVGIPTEWSVVEDLPEGPAVKIGENKDAMDGWFRLERVSDDEFNNYKLVFCPQQAEDDKCGDIGISIDHDDGTRRLVVSKNKPLVVQFQKLDKESL", "values": [
      {"measurement": "FP-biotin labeling intensities in STI-treated sample", "setting": "serine hydrolases", "result": "several, but not all FP-biotin reactive proteins showed significantly lower labeling intensities"},
      {"measurement": "FP-biotin labeling of trypsin preincubated with STI", "setting": "trypsin", "result": "did not label"}
    ]}
  ]
}
